The values that follow come from patent US20230373962A1, “SUPRAMOLECULAR MOLECULES FOR THE TREATMENT OF CANCER” (The University of Birmingham, priority 2020, published 2023).

The series is described as follows: Solubility. The settings on record: CB[10] alone. It is filed as physicochemical.

Take `O=C1N2CN3C(=O)N4CN5C(=O)N6CN7C(=O)N8CN9C(=O)N%10CN%11C(=O)N%12CN%13C(=O)N%14CN%15C(=O)N%16CN%17C(=O)N%18CN%19C(=O)N%20CN1C1C2N2CN%21C(=O)N(CN%22C(=O)N(CN%23C(=O)N(CN%24C(=O)N(CN%25C(=O)N(CN%26C(=O)N(CN%27C(=O)N(CN%28C(=O)N(CN%29C(=O)N(CN1C2=O)C%20C%19%29)C%18C%17%28)C%16C%15%27)C%14C%13%26)C%12C%11%25)C%10C9%24)C8C7%23)C6C5%22)C4C3%21` (stereo not shown) [CB[10], cucurbit[10]uril]: the solubility result is on record as “insoluble”.
